Assay results: patent US20230000807A1, “CBD ORAL FORMULATION” (Clear Lake Research, LLC, priority 2020, published 2023)

Key:
[1] = target: T1, CB2 receptors (Homo sapiens, UniProt P34972); assay: receptor affinity; format: binding; details: estimated; times the affinity of CBD
Description: Because CB2 receptors have a low affinity for CBD, a relatively large amount of CBD should be used for efficacy. In a specific implementation, a thin film strip has 100 mg CBD. In alternatives, the oral thin film is as little as 20 mg CBD. Because CBD is a relatively expensive component, the ratio of CBD to other components is more prone to cost/efficacy trade-offs than other components of the formulation. Advantageously, a low does of CBD, of 50 mg or less, acts as a stimulant, making a 20 mg to 50 mg formulation appropriate for formulations that have a goal of reducing the amount of CBD necessary and meeting one of the goals of a concentration improver/mood enhancer, which is stimulation.
A greater proportion of CBD may be desirable for the purpose of binding to theorized CBD3 receptors or other presently poorly defined receptors with less affinity for CBD. A high dose of CBD, over 100 mg up to less than 250 mg can have a sedative effect that may be effective for certain individuals, though it is unlikely desirable to reach 250 mg. If CBD is replaced with by endocannabinoid with (an estimated) 1,000 times the affinity of CBD, such as 2-Lineoleoyl-glycerol (3443-82-1) or 2-Palmitolyl-glycerol (23470-00-0), an alternative implementation of the oral thin film could have 0.025 mg to 0.1 mg endocannabinoid, but the formulation would likely be much more expensive than CBD.

[2] = applied topically; cited from earlier work
[3] = target: T1, CB2 receptors; details: cited from earlier work

T1 sequence (P34972 whole entry): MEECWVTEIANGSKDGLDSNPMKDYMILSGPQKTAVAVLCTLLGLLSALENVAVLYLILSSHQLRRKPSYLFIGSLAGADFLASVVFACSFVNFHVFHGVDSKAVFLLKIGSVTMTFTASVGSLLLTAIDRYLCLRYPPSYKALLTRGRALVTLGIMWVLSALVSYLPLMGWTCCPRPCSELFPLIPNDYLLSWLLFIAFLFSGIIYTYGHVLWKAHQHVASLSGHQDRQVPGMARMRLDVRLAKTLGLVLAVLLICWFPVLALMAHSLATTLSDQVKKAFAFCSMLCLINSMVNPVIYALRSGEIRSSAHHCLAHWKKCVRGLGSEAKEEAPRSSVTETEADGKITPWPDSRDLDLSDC

Compound | affinity relative to CBD [1] | time to have a significant pain relief impact [2] | affinity of CB2 receptors for the substance [3]
2-Lineoleoyl-glycerol | ~1,000 times | – | –
2-Palmitolyl-glycerol | ~1,000 times | – | –
C=C(C)[C@@H]1CCC(C)=C[C@H]1c1c(O)cc(CCCCC)cc1O [CBD, cannabidiol] | – | about 30 minutes | low affinity
